The experiment has as its system LeptoM cells. The experiment can be described thus: Iron Assay, chelation assay in vitro (intracellular iron). Format: cell-based, human. Conditions: PC9-LeptoM and MDA231-LeptoM cells; 0, 1, 10, 100 μM; in words. The text has this: FIG. 16A-16L. Iron chelator treatment reduces CSF iron. (A) Experimental scheme. Mice were inoculated with 2×10^3 cells intrathecally on day 0. Treatment with either vehicle, DFO, or D-pen was commenced on either day 1 or day 7 and continued every third day for a total of 7 doses. (B) Chelators delivered intrathecally. DFO, Deferoxamine. D-Pen, D-Penicillamine. (C-F) Intracellular iron (C and E) and viability (D and F) of PC9-LeptoM cells and MDA231-LeptoM cells after treatment with chelators in different concentrations (0 μM, 1 μM, 10 μM and 100 μM). n=3-4 per group in each of two independent experiments. * indicates p<0.05, ** indicates p<0.01, ***indicates p<0.001, **** indicates p<0.0001 (unpaired t test). Data represent mean±SEM. (G) Growth of PC9-LeptoM tumor after treatment indicated in (A). Left: in vivo BLI imaging in day 28 post-inoculation. n=8-10 per group in each of two independent experiments. Right: Representative BLI images. **** indicates p<0.0001. Data represent mean±SEM. (H) Kaplan-Meier survival curve from (C) and (E). p<0.0001. (I and J) Total iron concentration measured in CSF samples of mice with treatment of chelators in PC9-LeptoM Model (I) in MDA231-LeptoM model (J). […]
Iron Assay. […] The Iron Assay Kit (Sigma-Aldrich, MAK025) was used to quantify total iron in the intracellular contents and culture supernatant following the manufacturer's protocols. […]

“Also recorded” adds a separate entry of the source. Counter-ions that a name gives are not always drawn.

As for `CC(=O)N(O)CCCCCNC(=O)CCC(=O)N(O)CCCCCNC(=O)CCC(=O)N(O)CCCCCN` [DFO, Deferoxamine mesylate], the “iron levels within the LeptoM cells” value is given as “substantially suppressed; also recorded: dramatically suppressed”.

Source of the values: patent publication US20240050385A1, “METHODS OF TREATING LEPTOMENINGEAL METASTASIS” (MEMORIAL SLOAN-KETTERING CANCER CENTER, priority 2020, published 2024).
